“And” between values parts separate entries of the source, which are not always exact repeats. Equal entries are not always repeated.
Test system: biotinylated monoclonal anti-25OH vitamin D antibody
Assay: 25OH Vitamin D LOCI immunoassay, 3-epimer cross-reactivity, no anti-3-epimer antibody added
Assay type: binding, sheep
Details: No anti-3-epimer VD Ab added; for Avg. Cross-reactivity: average of ten patient sera spiked with 100 ng/mL 3-epimer D3
Description: The 25OH Vitamin D (25(OH)D) immunoassay format employed was a homogeneous competitive chemiluminescent immunoassay based on LOCI® assay technology. The assay was performed on the Siemens Dimension® EXL automated integrated clinical chemistry system (Siemens Healthcare Diagnostics Inc., Deerfield, Ill.). The assay measured the total concentration of 25(OH)D2 and/or 25(OH)D3 in serum and plasma samples. The LOCI® assay reagents included a releasing reagent, two synthetic bead reagents and a biotinylated monoclonal anti-25OH vitamin D antibody reagent. The first bead reagent (designated “Sensibeads”) was coated with streptavidin and contained a photosensitive dye. The second bead reagent (designated “Chemibeads”) was coated with a 25(OH)D3 analog and contained chemiluminescent dye. Sample was incubated with the releasing reagent to release 25(OH)D molecules including 3-epimeric compounds from vitamin D binding proteins. The reaction mixture was then incubated with biotinylated antibody to form a 25(OH)D-biotinylated antibody complex. […] Chemibeads were added to bind excess free biotinylated antibody. Sensibeads were then added to bind to the biotin portion of the biotinylated antibody. Aggregates of Chemibead-analog/antibody-biotin/streptavidin-Sensibeads were formed as a result. […] The resulting chemiluminescent signal was measured at 612 nm and is inversely proportional to the concentration of total 25(OH)D in the sample.
Biotinvlation of anti-25(OH)D antibody—NHS-PEO4-biotin (Pierce Chemical Company, Rockford Ill.) was coupled with the anti-25(OH)D antibody (a sheep monoclonal antibody from Bioventix, Farnham, Surrey, UK). […] The concentration was measured on UV A280. […]
The effect of adding anti-3-epimer-VD antibody 8F10.1 (anti-3-epimer VD Ab) on the 3-epimer cross-reactivity for the assay is shown in Table 1. […] The 3-epimer cross-reactivity was calculated by the difference between 25(OH)D2 or 25(OH)D3 values with and without the spiked 3-epimer compound divided by the amount of added 3-epimer compound.

C=C1CC[C@@H](O)C/C1=C/C=C1\CCC[C@]2(C)[C@@H]([C@H](C)CCCC(C)(C)O)CC[C@@H]12 [3-epimer D3, 3-epi-25-hydroxyvitamin D3]
Avg. Cross-reactivity: 13.7% | Avg. Cross-reactivity (listed as 3-epimer vitamin D3 compound): 13.7% | Cross-Reactivity (individual patient serum spiked with 100 ng/mL 3-epimer D3): 17.9% (2×) and 11.9% and 12.6% and 16.1% and 10.2% and 9.1% and 10.5% and 15.3% and 15.5%

From patent US9804176B2, “Assays for vitamin D epimers” (Siemens Healthcare Diagnostics Inc., priority 2014, dated 2017)
